Where two headings read alike, the source gives them in different places. Where no end group is shown, it is not given here.
Tests used:
S. aureus (ATCC6538) = type: cell-based, Staphylococcus aureus
human erythrocytes = test: Hemolysis assay; type: cell-based
Method: Hemolysis was determined by incubating 10% (v/v) suspension of human erythrocytes with peptides. Erythrocytes were rinsed four times in 10 mM PBS, pH 7.2, by repeated centrifugation and resuspension (3 min at 3000 × g). Erythrocytes were incubated at room temperature for 1 h in either deionized water (fully hemolysed control), PBS, or with peptide in PBS. After centrifugation at 10,000 × g for 5 min, the supernatant was separated from the pellet and the absorbance measured at 550 nm. Absorbance of the suspension treated with deionized water defined complete hemolysis. The values below correspond to the percentage of hemolysis at tested concentrations. All tests were done in triplicate.

[1] = system: Micrococcus luteus NCIMB 13267; type: cell-based
Method: (§1) MICs were determined by broth microdilution on Pseudomonas aeruginosa ATCC 27853, Escherichia coli K12, Staphylococcus aureus ATCC 25723, Micrococcus luteus NCIMB 13267, and Bacillus subtilis ATCC 6633 according to the Clinical and Laboratory Standards Institute. Typically, 100 μl of 0.5–1 × 10^6 cfu/ml of each bacterium in Mueller-Hinton medium broth (Oxoid) was incubated in 96-well microtiter plates with 100 μl of serial 2-fold dilutions of the peptides (from 100 to 0 μM) at 37 °C on a three-dimensional orbital shaker. The absorbance was measured after peptide addition at 600 nm using a Victor 2 plate reader (PerkinElmer Life Sciences). MICs were defined as the lowest peptide concentration after 24 h at 37 °C. All tests were done in triplicate.

Escherichia coli K12 = type: cell-based
Method: as §1

[2] = system: Pseudomonas aeruginosa ATCC 27853; type: cell-based
Method: as §1

[3] = system: Bacillus subtilis ATCC 6633; type: cell-based
Method: as §1

cBt = test: Isothermal titration calorimetry of anti-cBt into cBt; type: binding; settings: ITC, 20 °C
Method: Measurements were obtained using a Microcal VP-isothermal titration calorimeter and a calorimetric cell (initial volume 1.46 ml) with a 260-s equilibration time and a 120-s initial delay after each addition. The titrations were performed at 20 °C with stirring until no further enthalpy changes were observed. Binding isotherms were recorded for cBt (30 μM) following the injection of anti-cBt (2 μl aliquots, 1.4 mM) into the cell. The observed heats were corrected for dilution effects by titrating peptide solutions, as appropriate, into the buffer and using the heat of last injections due to negligible differences between the first and last injections. All the data were corrected for the volume of the added titrant and analyzed by proprietary software (Microcal Origin 7) using a one-site binding model to allow for the determination of association constants (Ka), changes in enthalpy (ΔH) and enthropy (ΔS). Each experiment was performed in triplicate.

E. coli = test: Gram stain assay after overnight incubation with peptide; type: cell-based, Escherichia coli; settings: incubated with peptide for 16 h, optical microscopy; anti-cBt:cBt 10:1 (100:10 μM)
Method: (§2) 20 μl of a bacterium culture was dispensed onto a glass slide and spread well. The slide was swiftly passed through a Bunsen flame to dry and fix cells before staining. The fixed bacteria were first covered in crystal violet (0.25%) for 30 s followed by washing with water (distilled, filtered 0.22 μm) until all of the excess stain was washed off, and then with iodine (1.0%) for 2 min before washing with a minimum amount of acetone needed to rinse off the iodine color. The cells were counterstained with safranin (0.5%) for 30 s, washed with water, and dried by a Bunsen flame. The obtained slides were viewed under a Leica DMLB fluorescent microscope. The images were obtained at ×100 magnification under oil and analyzed by ImageJ.

S. aureus (ATCC 25723) = type: cell-based
Method: S. aureus (ATCC 25723) culture (1 ml) was centrifuged to give a cell pellet, which was washed twice with 10 mM phosphate buffer, pH 7.4, before being reconstituted in phosphate buffer to give A600 nm = 0.008. 1 ml of the solution was dispensed in a 2-well glass chamber (LabTek) with diluted (1/500) propidium iodide (1 mg/ml, from Invitrogen). The chambers with surface-settled bacteria (60 min) were mounted on a confocal microscope (Olympus) equipped with an incubation chamber at 37 °C. Propidium iodide fluorescence emission was monitored at 625 nm for 60 min (three frames/min) using an appropriate filter after the addition of peptide (1 ml). Recorded images (XYZ) were analyzed using Fiji software to plot the number of fluorescent (stain-dead) cells as a function of time.

P. aeruginosa = test: Gram stain assay after overnight incubation with peptide; type: cell-based, Pseudomonas aeruginosa; settings: incubated with peptide for 16 h, optical microscopy; anti-cBt:cBt 10:1 (100:10 μM)
Method: as §2

[4] = broth microdilution, Mueller-Hinton broth, 24 h, 37 °C, A600, triplicate
[5] = human erythrocytes 10% (v/v) in PBS pH 7.2, 1 h, room temperature, A550, 50% cell death compared with untreated cells, triplicate

| Substance | Minimum inhibitory concentration (MIC) S. aureus (ATCC6538) (S. aureus (ATCC6538); [4]) [µM] | HE (LC50) (human erythrocytes; [5]) | Minimum inhibitory concentration (MIC) M. luteus (NCIMB 13267) [1, 4] [µM] | Minimum inhibitory concentration (MIC) E. coli (K12) (Escherichia coli K12; [4]) [µM] | Minimum inhibitory concentration (MIC) P. aeruginosa (ATCC27853) [2, 4] [µM] | Minimum inhibitory concentration (MIC) B. subtilis (ATCC6633) [3, 4] [µM] | association (binding) constant (Ka) (cBt; anti-cBt (1.4 mM) injected into cBt (30 μM), one-site binding model, triplicate) | ΔG of binding (cBt; anti-cBt into cBt (30 μM)) [kcal/mol] | binding enthalpy (ΔH) (cBt; anti-cBt into cBt (30 μM), endothermic) [kcal/mol] | effect on E. coli cell growth, Gram stain (E. coli) | effect on killing of S. aureus at concentrations >100 μM (S. aureus (ATCC 25723); stain-dead S. aureus, propidium iodide, 37 °C) | killing rate at higher concentrations (>250 μM) (S. aureus (ATCC 25723); stain-dead S. aureus, cBt at MIC after 1 h = 100%) [%] | effect on P. aeruginosa cell growth, Gram stain (P. aeruginosa) | Minimum inhibitory concentration (MIC) S. aureus (ATCC6538) (S. aureus (ATCC6538); ATCC6538, 24 h) [µM] | HE (LC50) (human erythrocytes; pH 7.2) | Minimum inhibitory concentration (MIC) M. luteus (NCIMB 13267) ([1]; NCIMB 13267, 24 h) [µM] | Minimum inhibitory concentration (MIC) E. coli (K12) (Escherichia coli K12; K12, 24 h) [µM] | Minimum inhibitory concentration (MIC) P. aeruginosa (ATCC27853) ([2]; ATCC 27853, 24 h) [µM] | Minimum inhibitory concentration (MIC) B. subtilis (ATCC6633) ([3]; ATCC 6633, 24 h) [µM] | killing rate in the first 30 min (S. aureus (ATCC 25723); ATCC 25723, 1 h, 100 μM, pH 7.4) [%] |
| --- | --- | --- | --- | --- | --- | --- | --- | --- | --- | --- | --- | --- | --- | --- | --- | --- | --- | --- | --- | --- |
| EAQNLEKEIAALEQAIQGLEKEIPALAQQIQALEL-NH2 [Anti-cBt] | >200 | ≫250 μM | >200 | >200 | >200 | >200 | 2.8 ± 0.2 × 10^6 M^−1 | -7.8 | 9.7 | No obvious effects | No effects | 10 | No obvious effects |  |  |  |  |  |  |  |
| GEFAQFEQEAQSLEQELSQLEQQLESL-NH2 [Anti-b27] |  |  |  |  |  |  |  |  |  |  |  |  |  | >200 | ≫250 μM | >200 | >200 | >200 | >200 |  |
| GRFKRFRKKFKKLFKKLSPVIPLLHLG-NH2 [b27, bovine myeloid antimicrobial peptide-27, reference compound] |  |  |  |  |  |  |  |  |  |  |  |  |  | >100 | ≫250 μM | 0.74 ± 0.33 | 3.13 ± 0.43 | 4.51 ± 1.56 | 0.78 ± 0.01 |  |
| KWKVFKKIEKMGRNIRNGIVKAGPAIAVLGEAKAL-NH2 (C-terminus assumed) [cB, cecropin B, reference compound] |  | ≫250 μM |  |  |  |  |  |  |  |  |  |  |  | >100 |  | 0.46 ± 0.20 | 0.62 ± 0.01 | 1.56 ± 0.01 | 50.7 ± 0.10 | ~60 |
